Where two headings read alike, the source gives them in different places.
Columns and labels:
[1] = cc_pd bond
[2] = target: T1, human recombinant L1196M ALK kinase domain (amino acids 1093-1411) (Homo sapiens, UniProt Q9UM73, L1196M); test: L1196M mutant ALK enzyme assay (microfluidic mobility shift); assay type: biochemical; conditions: ATP 60 μM, 0.5 nM enzyme, competitive inhibition fit; read-out: L1196M ALK enzyme assay (Ki)
T1 construct: ALK kinase domain (amino acids 1093-1411); made in house

[3] = target: T2, human recombinant wild-type ALK kinase domain (amino acids 1093-1411) (Homo sapiens, UniProt Q9UM73); test: Wild-type ALK enzyme assay (microfluidic mobility shift); assay type: biochemical; conditions: ATP 60 μM, competitive inhibition fit, read-out: WT ALK enzyme assay (Ki)
T2 construct: ALK kinase domain (amino acids 1093-1411); made in house
Protocol: The reactions were incubated for 1 h at room temperature, stopped by the addition of 0.1 M EDTA, pH 8, and the extent of reactions (˜15-20% conversion with no inhibitor) was determined after electrophoretic separation of the fluorescently labeled peptide substrate and phosphorylated product on an LabChip EZ Reader II (Caliper Life Sciences, Hopkinton, Mass.).

[4] = target: T3, WT EML4-ALK (NIH-3T3 EML4-ALK wt v1 cells) (Homo sapiens, UniProt Q9UM73); test: Cellular phospho-ALK (Tyr1604) ELISA assay for WT EML4-ALK; assay type: cell-based; conditions: 1 hour, read-out: ELISA assay for WT EML4-ALK (IC50)
T3 construct: expressed in transfected cells; the other entry of the earlier key: EML4 (Q9HC35, Echinoderm microtubule-associated protein-like 4)

[5] = target: T4, L1196M EML4-ALK (NIH-3T3 EML4-ALK v1 L1196M cells) (Homo sapiens, UniProt Q9UM73, L1196M); test: Cellular phospho-ALK (Tyr1604) ELISA assay for L1196M EML4-ALK; assay type: cell-based; conditions: NIH-3T3 EML4-ALK v1 L1196M cells, 1 hour, phospho-ALK (Tyr1604); read-out: ELISA assay for L1196M EML4-ALK (IC50)
T4 construct: expressed in transfected cells; the other entry of the earlier key: EML4 (Q9HC35, Echinoderm microtubule-associated protein-like 4)
Protocol: Cellular Phospho-ALK (Tyr1604) ELISA Assay for EML4-ALK:
The cells were maintained at 37° C. in a 5% CO2 incubator in DMEM (Invitrogen, Carlsbad, Calif.) medium supplemented with 1% L-glutamine, 1% penicillin and streptomycin, 1 ug/ml puromycin and 10% new born calf serum (NCS) in T-75 flasks.
Cells were washed with PBS and re-suspended in DMEM medium supplemented with 0.5% NCS and 1% pen/strep and seeded into 96-well plates at density of 20,000 cells/well/100 μl and incubated in the incubator at 37° C. and 5% CO2. After 20 hours of incubation, 100 μl of assay media (DMEM) in presence of designated PF-compounds concentrations or controls (DMSO) were added into plates and incubated for 1 hour in the incubator. Media was then removed and lysis buffer, containing phosphatase inhibitors and phenylmethanesulfonyl fluoride (PMSF), was added to wells and shaken at 4° C. for 30 minutes to generate protein lysates.
A phospho-ALK (Tyr1604) rabbit antibody was coated onto the 96-well microplates. 50 μl of cell lysates were added to the antibody coated plate and incubated at room temperature for 2 hours. Following extensive washing with 0.1% Tween 20 in PBS to remove unbound materials, ALK mouse mAb was added to detect captured phospho-ALK (Tyr1604) and phospho-ALK fusion proteins. Anti-mouse IgG, HRP-linked antibody was then used to recognize the bound detection antibody. Finally, the chemiluminescent reagent was added and incubated for 10 minutes for signal development. The assay plates were read in the Envision plate reader in the luminescent mode. IC50 values were calculated by a concentration-response curve fitting using a four-parameter analytic method.

[6] = cc_pd bond, 12-membered ring, Pd(OAc)2/cataCXium A/KOAc, t-AmOH, 120.0 °C
[7] = cc_pd bond, 12-membered ring, Pd(OAc)2/cataCXium A/KOAc, 120.0 °C

SMILES	Ki [2] [nM]	Ki [3] [nM]	IC50 [4] [nM]	IC50 [5] [nM]	further results
C[C@H]1Oc2nc(cnc2N)-c2c(nc3ccc(C#N)cn23)CN(C)C(=O)c2ccc(F)cc21					ring closure, yield after HPLC (cc_pd bond, 12-membered ring, cataCXium/t-AmOH/KOAc, DMAc, 11.9 mM, 110.0 °C): 12%
Cc1cnc2nc3c(n2c1)-c1cnc(N)c(n1)O[C@H](C)c1cc(F)ccc1C(=O)N(C)C3					ring closure, yield of all isomers ([1]; from Cc1cnc2nc(CN(C)C(=O)c3ccc(F)cc3[C@@H](C)Oc3nc(Br)cnc3N)cn2c1, Pd(OAc)2/cataCXium A, KOAc, tert-amyl alcohol, 30.0 mM, 120.0 °C, 2.0 h): 50%
Cc1cnc2nc3cn2c1-c1cnc(N)c(n1)O[C@H](C)c1cc(F)ccc1C(=O)N(C)C3					ring closure, yield after HPLC (cc_pd bond, Pd(OAc)2/cataCXium A/KOAc, t-amyl alcohol, 30.0 mM, 120.0 °C): 7%
Cc1nn(C)c2c1-c1cnc(N)c(n1)OC(C)c1cc(F)ccc1C(=O)N(C)C2 (centres unmarked)					ring closure, yield of all isomers ([1]; from Cc1nn(C)c(CN(C)C(=O)c2ccc(F)cc2C(C)Oc2nc(Br)cnc2N)c1Br, Pd(OAc)2 / di(1-adamantyl)-n-butylphosphine, bis(pinacolato)diboron, CsF, MeOH, 42.4 mM, 100.0 °C, 8.5 h, 2 steps): 6%
COc1nccc2c1-c1cnc(N)c(c1)OC(C)c1cc(F)ccc1C(=O)N(C)C2 (centres unmarked) [Example 45, 8-amino-13-fluoro-4-methoxy-11,17-dimethyl-17,18-dihydro-9,5-(metheno)pyrido[3,4-h][2,5,11]benzoxadiazacyclotetradecin-16(11H)-one]	500	> 3000			ring closure, yield after HPLC (amide bond, 12-membered ring, CMPI/DIEA, DMA, 10.0 mM, 0.0 °C): 4%
C[C@H]1Oc2nc(cnc2N)-c2c(nn(C)c2C#N)CN(C)C(=O)c2ccccc21 [Example 70, (10R)-7-amino-2,10,16-trimethyl-15-oxo-10,15,16,17-tetrahydro-2H-8,4-(azeno)pyrazolo[4,3-h][2,5,11]benzoxadiazacyclotetradecine-3-carbonitrile]	0.96	< 0.16	6.52	78.5	ring closure, yield after HPLC (from C[C@@H](Oc1nc(Br)cnc1N)c1ccccc1C(=O)N(C)Cc1cc(C#N)n(C)n1, cc_pd bond, 12-membered ring, Pd(OAc)2/cataCXium A/KOAc, t-amyl alcohol, 48.7 mM, 120.0 °C): 32%; ring closure, yield of all isomers ([1]; from C[C@@H](Oc1nc(Br)cnc1N)c1ccccc1C(=O)N(C)Cc1cc(C#N)n(C)n1, Pd(OAc)2/cataCXium A, KOAc, tert-amyl alcohol, 48.7 mM, 120.0 °C, 3.0 h): 32%
C[C@H]1Oc2cc(cnc2N)-c2c(nn(C)c2C#N)CN(C)C(=O)c2ccccc21 [Example 71, (10R)-7-amino-2,10,16-trimethyl-15-oxo-10,15,16,17-tetrahydro-2H-8,4-(metheno)pyrazolo[4,3-h][2,5,11]benzoxadiazacyclotetradecine-3-carbonitrile]	3.73	< 0.249	10.2	169	ring closure, yield after HPLC (cc_pd bond, 12-membered ring, B2pin2/Pd(OAc)2/cataCXium A/CsF, MeOH/H2O, 12.7 mM, 100.0 °C): 13%
C[C@H]1Oc2nc(cnc2N)-c2c(C(N)=O)noc2CN(C)C(=O)c2ccc(F)cc21 [Example 72, (10R)-7-amino-12-fluoro-10,16-dimethyl-15-oxo-10,15,16,17-tetrahydro-8,4-(azeno)[1,2]oxazolo[4,5-h][2,5,11]benzoxadiazacyclotetradecine-3-carboxamide]	28	5.1	347	4270	ring closure, yield after HPLC (cc_pd bond, 12-membered ring, Pd(OAc)2/cataCXium A/KOAc/PivOH, DMA, […], 120.0 °C): 12%
C[C@H]1Oc2nc(cnc2N)-c2c(C#N)noc2CN(C)C(=O)c2ccc(F)cc21 [Example 73, (10R)-7-amino-12-fluoro-10,16-dimethyl-15-oxo-10,15,16,17-tetrahydro-8,4-(azeno)[1,2]oxazolo[4,5-h][2,5,11]benzoxadiazacyclotetradecine-3-carbonitrile]	2.4	0.33	12.8	169	ring closure, yield after HPLC (cc_pd bond, 12-membered ring, Pd(OAc)2/cataCXium A/KOAc/PivOH, DMA, 49.9 mM, 120.0 °C): 21%
CCc1noc2c1-c1cnc(N)c(c1)O[C@H](C)c1cc(F)ccc1C(=O)N(C)C2 [Example 81, (10R)-7-amino-3-ethyl-12-fluoro-10,16-dimethyl-16,17-dihydro-8,4-(metheno)[1,2]oxazolo[4,5-h][2,5,11]benzoxadiazacyclotetradecin-15(10H)-one]	3.9	< 1.88	2.25	52	ring closure, yield after HPLC (cc_pd bond, 12-membered ring, Pd(OAc)2/cataCXium A/KOAc/PivOH, DMA, 50.0 mM, […]): 6%
C[C@H]1Oc2cc(cnc2N)-c2c(n[nH]c2C#N)CN(C)C(=O)c2ccc(F)cc21 [Example 88, (10R)-7-amino-12-fluoro-10,16-dimethyl-15-oxo-10,15,16,17-tetrahydro-2H-8,4-(metheno)pyrazolo[4,3-h][2,5,11]benzoxadiazacyclotetradecine-3-carbonitrile]	0.39	0.2	15.5	191	ring closure, yield after HPLC (amide bond, 12-membered ring, HATU/DIEA, DMF, 8.3 mM, 0.0 °C): 12%
C[C@H]1Oc2nc(cnc2N)-c2c(noc2C#N)CN(C)C(=O)c2ccc(F)cc21 [Example 99, (10R)-7-amino-12-fluoro-10,16-dimethyl-15-oxo-10,15,16,17-tetrahydro-8,4-(azeno)[1,2]oxazolo[4,3-h][2,5,11]benzoxadiazacyclotetradecine-3-carbonitrile]	11.7	3.2	52.4	531	ring closure, yield after HPLC (cc_pd bond, 12-membered ring, Pd(OAc)2/cataCXium A/KOAc, t-AmOH, 21.0 mM, 120.0 °C): 9%; ring closure, conversion ([6]; 21.0 mM): 30%
C[C@H]1Oc2cc(cnc2N)-c2c(noc2C#N)CN(C)C(=O)c2ccc(F)cc21 [Example 100, (10R)-7-amino-12-fluoro-10,16-dimethyl-15-oxo-10,15,16,17-tetrahydro-8,4-(metheno)[1,2]oxazolo[4,3-h][2,5,11]benzoxadiazacyclotetradecine-3-carbonitrile]	24.2	3.1	146	1480	ring closure, isolated yield ([7]; t-AmOH, 17.9 mM): 15%; ring closure, conversion ([6]; 17.9 mM): 30%
C[C@H]1Oc2nc(cnc2N)-c2c(nn(C)c2C#N)CN(C)C(=O)c2c(F)cc(F)cc21 [Example 101, (10R)-7-amino-12,14-difluoro-2,10,16-trimethyl-15-oxo-10,15,16,17-tetrahydro-2H-8,4-(azeno)pyrazolo[4,3-h][2,5,11]benzoxadiazacyclotetradecine-3-carbonitrile]	0.41	0.12	0.92	8.77	ring closure, isolated yield ([7]; t-amyl alcohol, 50.0 mM): 53%; ring closure, yield of all isomers ([1]; from C[C@@H](Oc1nc(Br)cnc1N)c1cc(F)cc(F)c1C(=O)N(C)Cc1cc(C#N)n(C)n1, Pd(OAc)2/cataCXium A/KOAc, tert-amyl alcohol, 50.0 mM, 120.0 °C, 2.0 h): 53%

Source: patent US8680111B2 (Pfizer Inc., priority 2012, dated 2014)
